The subject of test [1] is wild type and ORL knockout mice. The experiment in a line: Blockade of fasting-induced hyperphagia in mice. Conditions: wild type mice, oral gavage 30 min. prior to food, food intake 1 hr. In kind it is in vivo, mouse. An excerpt: Blockade of fasting-induced hyperphagia in rats is an accepted model for hyperphagic eating disorders. […] Mice are individually housed a minimum of 3 days prior to the onset of testing to eliminate any effects of stress due to the change from group to individual housing. Three mice/genotype are randomly assigned to each treatment group on the test day. Pre-fast body weight measurements are taken, and food is then removed from cages overnight. Mice are fasted for approximately 15 hr. The next morning, the mice are given one of three doses of drug or vehicle via oral gavage 30 min. prior to gaining access to food. Drugs are dissolved in 20% Captisol dissolved in 25 mM phosphate buffer, pH 2.0. Measurements of body weight are taken immediately prior to drug treatment or 24 hr. after access to food is restored. […] Measurements of food intake are recorded 1 hr following access to food, as indicated, by weight of food remaining at 1 hr. It should be noted that food intake measured is during the light phase, a time during which mice are typically at rest and not normally eating. Following initial testing, mice are rested for 1 week with access to unlimited chow.

The target in test [2] is T1, nociceptin/ORL1 receptors (Rattus norvegicus, UniProt P35370).
T1 construct: rats are sacrificed by cervical dislocation and the hypothalamus is removed; from tissue; host or cells: rat hypothalamus (in vivo occupancy)
T1 sequence (P35370 whole entry): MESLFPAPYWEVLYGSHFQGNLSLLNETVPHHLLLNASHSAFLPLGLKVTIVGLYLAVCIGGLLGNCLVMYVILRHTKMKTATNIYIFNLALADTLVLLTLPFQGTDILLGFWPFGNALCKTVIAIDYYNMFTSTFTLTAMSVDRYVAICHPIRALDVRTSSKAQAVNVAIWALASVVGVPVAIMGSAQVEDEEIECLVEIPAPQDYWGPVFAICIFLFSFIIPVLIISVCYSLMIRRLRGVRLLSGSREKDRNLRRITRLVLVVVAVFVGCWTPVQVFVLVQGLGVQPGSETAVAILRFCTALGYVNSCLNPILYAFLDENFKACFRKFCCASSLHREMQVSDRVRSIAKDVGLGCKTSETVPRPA
Put plainly: In vivo receptor occupancy (LC/MS/MS, RO Tracer) in hypothalamus. Conditions: oral 3 mg/kg dose after 6 hr.

Test [3] has as its target human ERG (hERG) K+ channel (Homo sapiens, UniProt Q12809). Put plainly: hERG channel [3H]astemizole binding assay. How it is done:
Blockade of K^+-channel conductance in the heart is associated with cardiotoxicity in the form of QT-wave prolongation. The affinity (Ki) of the exemplified nociceptin receptor antagonists for the human ERG (hERG) K^+ channel is determined in HEK293 cells expressing cloned hERG using the hERG channel antagonist radioligand [3H]astemizole (2 nM final assay concentration) according to well known procedures (see for example Finlayson K, et al. (Eur J Pharmacol. 412(3):203-12, 2001) [3H]Astemizole binding assays are performed at the contract research company Cerep (Paris France) according to standard procedures.
On the technique in general: The hERG channel carries a current that helps repolarise heart muscle cells.

Test [4] addresses T2, cloned human ORL1/nociceptin receptors (Homo sapiens, UniProt P41146).
T2 construct: expressed in transfected cells
Put plainly: Functional blockade of agonist-mediated G-protein activation, GTP-γ-[35S] binding. In kind it is biochemical. The source says:
Agonist-mediated stimulation of G-protein coupled receptors results in the activation of membrane associated Gαβγ-protein heterotrimer complexes, and represents the first step in the transduction of extracellular signals to modification of intracellular pathways. The first step in activation of receptor-mediated activation of Gαβγ-proteins heterotrimer is the exchange of Gα subunit bound guanosine diphoshpate (GDP) for guanosine triphosphate (GTP). The binding of GTP to the Gα subunit causes dissociation of the heterotrimer subunits, Gβ and Gγ, resulting in the modulation of several intracellular signaling cascades. Measurement of receptor-mediated G-protein activation can be measured using the non-hydrolyzable radiolabeled analog of GTP, GTP-γ-[35S]. Utilizing this methodology, antagonist affinity (Kb) is measured in membranes expressing cloned human ORL1/nociceptin receptors using a GTP-γ-[35S] binding assay according to previously described protocols with minor modifications (DeLapp et al., J Pharmacol Exp Ther. 1999 May; 289(2):946-55; Ozaki et al., Eur J Pharmacol. 2000 Aug. 18; 402(1-2):45-53). Assays are conducted in a 200-μl volume with the following buffer composition: 100 mM NaCl, 20 mM HEPES, 5 mM MgCl2, 1 mM EDTA, 0.1% BSA, 3 μM GDP, 0.5 nM [^35S]GTPγS. ORL1 receptor membrane suspension is added at a concentration of 20 μg protein per well and receptor stimulation is achieved using 300 nM nociceptin/OFQ. Wheat germ agglutinin coated SPA beads (Amersham, Arlington Hts., Ill.) are added at 1 mg per well to detect membrane-bound [^35S]GTPγS. Plates are sealed and incubated for 2 hr. at room temperature. Plates are then placed at 4° C. overnight to allow the SPA beads to settle and then counted in a Wallac Microbeta. Specific [^35S]GTPγS binding is determined as the difference in CPM observed in the absence and presence of 10 μM unlabeled GTPγS. Data are plotted as the percent of specific [^35S]GTPγS bound. Curves are plotted as the percent of specific binding and IC50 values are determined using a sigmoidal dose response curve with variable slope. Antagonist affinity (Kb) is estimated according to DeLapp et al., 1999 using a modification of the equation of Cheng and Prusoff (1973) where Kb=IC50×(1+D×EC50^−1)^−1.

The target in test [5] is T3, cloned human ORL1 receptors (Homo sapiens, UniProt P41146).
T3 construct: expressed in transfected cells; host or cells: CHO cells (membranes)
T3 sequence (P41146 whole entry): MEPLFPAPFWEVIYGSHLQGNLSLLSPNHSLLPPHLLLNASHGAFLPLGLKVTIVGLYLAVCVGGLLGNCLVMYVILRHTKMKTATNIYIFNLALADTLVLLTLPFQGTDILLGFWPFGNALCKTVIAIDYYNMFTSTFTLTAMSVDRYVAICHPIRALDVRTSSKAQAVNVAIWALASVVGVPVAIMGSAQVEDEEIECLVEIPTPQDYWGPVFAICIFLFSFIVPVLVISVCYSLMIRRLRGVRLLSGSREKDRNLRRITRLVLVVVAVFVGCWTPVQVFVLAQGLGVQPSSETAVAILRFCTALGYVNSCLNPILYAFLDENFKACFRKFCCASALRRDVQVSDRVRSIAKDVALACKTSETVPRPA
The experiment in a line: [3H]-OFQ/nociceptin receptor binding assay. The procedure:
(§1) Radioligand binding assays are commonly used to determine the affinity (Ki) or potency of a compound to bind to a particular receptor or target protein. A filtration-based [3H]-OFQ/nociceptin receptor binding assay is developed based on previous assay formats (Ardati A, Henningsen R A, Higelin J, Reinscheid R K, Civelli O, Monsma F J Jr. Mol. Pharmacol. 1997 May; 51(5):816-24.) with minor modifications. [3H]-OFQ/nociceptin binding assays are carried out in deep-well 96-well plates. [^3H]OFQ (final assay concentration 0.2 nM) competition studies are carried out with 5-10 μg of membrane protein (isolated from Chinese hamster ovary cells (CHO cells) expressing cloned human ORL1 receptors) in a final assay volume of 0.5 mL of buffer containing 20 mM HEPES, pH 7.4, 5 mM MgCl2, 1 mM EGTA, 100 mM NaCl, 0.1% bovine serum albumin. Samples are incubated for 60 min. at room temperature, which is found to be optimal for competition assays. The assays are terminated by filtration through glass fiber filters (Wallac filtermat A) [pretreated with 0.3% polyethylenimine (Sigma) for 1 hr] on a Tometc cell harvester, and the filters are washed three times with 5 mL of ice-cold 50 mM Tris.HCl, pH 7.4. Filtermats are then dried and imbedded with Meltilex scintillant A and the radioactivity counted in a Wallac Microbeta scintillation counter. Specific binding is determined by displacement with 100 nM unlabeled nociceptin. Curves are plotted as the percent of specific binding and IC50 values are determined using a sigmoidal dose response curve with variable slope. K, values are calculated from the IC50 by the equation of Cheng and Prusoff (Cheng, Y. C., and Prusoff, W. H., Biochem. Pharmacol. 22, 3099-3108 (1973)) where Ki=IC50×(1+D×Kd^−1)^−1. Similarly, Ki for the mu, kappa and delta opioids, serotonin, adrenergic, and muscarinic receptors may be determined using membranes expressing the desired receptor and appropriate corresponding radioligand competitor molecules.

The target of test [6] is 5-HT1D (Homo sapiens, UniProt P28221). Put plainly: Radioligand binding selectivity. Conditions: 5-HT1D; read-out: Ki. How it is done:
as §1

For test [7], the target named is 5-HT1E (Homo sapiens, UniProt P28566). The experiment in a line: Radioligand binding selectivity. The note with it: 5-HT1E; read-out: Ki. How it is done:
as §1

Test [8] deals with 5-HT1B (Homo sapiens, UniProt P28222). The experiment in a line: Radioligand binding selectivity. Conditions: 5-HT1B; read-out: Ki. How it is done: as §1
In test [9] the target is 5-HT6 (Homo sapiens, UniProt P50406). The experiment in a line: Radioligand binding selectivity. The note with it: 5-HT6; read-out: Ki. How it is done: as §1
Chain of 5-HT6 (P50406 whole entry, species assumed): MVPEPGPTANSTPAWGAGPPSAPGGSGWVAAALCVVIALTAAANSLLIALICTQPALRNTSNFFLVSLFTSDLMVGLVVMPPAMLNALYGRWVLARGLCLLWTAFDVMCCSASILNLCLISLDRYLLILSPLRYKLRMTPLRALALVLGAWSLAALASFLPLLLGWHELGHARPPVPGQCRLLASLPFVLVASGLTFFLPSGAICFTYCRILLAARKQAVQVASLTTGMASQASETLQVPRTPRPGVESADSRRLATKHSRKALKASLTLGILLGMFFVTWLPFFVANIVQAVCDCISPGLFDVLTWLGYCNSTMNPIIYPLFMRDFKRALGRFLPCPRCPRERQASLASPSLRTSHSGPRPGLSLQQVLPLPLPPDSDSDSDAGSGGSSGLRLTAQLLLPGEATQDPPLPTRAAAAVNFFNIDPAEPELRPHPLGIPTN
Test [10] deals with 5-HT7 (Homo sapiens, UniProt P34969). The experiment in a line: Radioligand binding selectivity. Conditions: 5-HT7; read-out: Ki. How it is done:
as §1

The target of test [11] is 5-HT2A (Homo sapiens, UniProt P28223). The experiment in a line: Radioligand binding selectivity. Conditions: 5-HT2A; read-out: Ki. How it is done: as §1
Chain of 5-HT2A (P28223 whole entry, species assumed): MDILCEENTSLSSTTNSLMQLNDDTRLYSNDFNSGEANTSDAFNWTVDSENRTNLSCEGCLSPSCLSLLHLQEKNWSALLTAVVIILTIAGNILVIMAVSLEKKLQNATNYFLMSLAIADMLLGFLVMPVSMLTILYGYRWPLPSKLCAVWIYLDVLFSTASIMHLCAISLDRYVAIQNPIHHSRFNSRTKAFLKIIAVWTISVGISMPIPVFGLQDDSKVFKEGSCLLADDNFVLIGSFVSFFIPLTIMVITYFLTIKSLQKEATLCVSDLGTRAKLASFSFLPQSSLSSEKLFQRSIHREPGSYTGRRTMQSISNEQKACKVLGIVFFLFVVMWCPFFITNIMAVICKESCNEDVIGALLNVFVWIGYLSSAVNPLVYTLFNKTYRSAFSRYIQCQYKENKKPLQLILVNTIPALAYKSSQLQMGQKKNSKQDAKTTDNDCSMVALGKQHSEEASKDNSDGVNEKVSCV
Test [12] has as its target 5-HT4 (Homo sapiens, UniProt Q13639). The experiment in a line: Radioligand binding selectivity. The note with it: 5-HT4; read-out: Ki. How it is done:
as §1

The target of test [13] is 5-HT2B (Homo sapiens, UniProt P41595). Put plainly: Radioligand binding selectivity. The procedure: as §1
The target in test [14] is 5-HT1F (Homo sapiens, UniProt P30939). Put plainly: Radioligand binding selectivity. The procedure:
as §1

The target of test [15] is 5-HT2C (Homo sapiens, UniProt P28335). The experiment in a line: Radioligand binding selectivity. Conditions: 5-HT2C; read-out: Ki. How it is done: as §1
The target of test [16] is 5-HT5 (Homo sapiens, UniProt P47898). Put plainly: Radioligand binding selectivity. The note with it: 5-HT5; read-out: Ki. The procedure: as §1
Test [17] deals with NIH-Swiss mice; 129S6 wild type and nociceptin/ORL1 receptor knockout mice. Put plainly: Forced-swim test in mice (mFST). Conditions: mFST. In kind it is in vivo, mouse. An excerpt:
Forced-Swim Test in Mice (mFST) mFST is an established in vivo assay for antidepressant activity (Li et al. J Pharmacol Exp Ther. 319(1):254-9, 2006.). […] The mFST was used to evaluate potential antidepressant-like activity of novel nociceptin/ORL1 antagonists according to previously published methods (Li et al. J Pharmacol Exp Ther. 319(1):254-9, 2006.). Briefly, male NIH-Swiss mice (Harlan Sprague-Dawley, Indianapolis, Ind.) weighing between 25-30 g are used. Group housed animals are removed from the vivarium to the testing area in their own cages and allowed to adapt to the new environment for at least 1 hour before testing. Alternatively, male 129S6 wild type and nociceptin/ORL1 receptor knockout mice were used to confirm dependence of the response to compound was nociceptin/ORL1 receptor dependent. All compounds are prepared in 20% Captisol, 25 mM phosphate buffer, pH 2.0 on the day of use. Mice are placed in a cylinder (diameter: 10 cm; height: 25 cm) filled with 6 cm of water (22-25° C.) for 6 min. The duration of immobility during the last 4 min. of the 6 min. period of the test was scored. A mouse is recorded as immobile when floating motionless or making only those movements necessary to keep its head above water.

Test [18] has as its target Delta Opioid (Homo sapiens, UniProt P41143). The experiment in a line: Radioligand binding selectivity. Conditions: Delta Opioid; read-out: Ki. How it is done:
as §1

The target in test [19] is Mu Opioid (Homo sapiens, UniProt P35372). The experiment in a line: Radioligand binding selectivity. Conditions: Mu Opioid; read-out: Ki. How it is done: as §1
Chain of Mu Opioid (P35372 whole entry): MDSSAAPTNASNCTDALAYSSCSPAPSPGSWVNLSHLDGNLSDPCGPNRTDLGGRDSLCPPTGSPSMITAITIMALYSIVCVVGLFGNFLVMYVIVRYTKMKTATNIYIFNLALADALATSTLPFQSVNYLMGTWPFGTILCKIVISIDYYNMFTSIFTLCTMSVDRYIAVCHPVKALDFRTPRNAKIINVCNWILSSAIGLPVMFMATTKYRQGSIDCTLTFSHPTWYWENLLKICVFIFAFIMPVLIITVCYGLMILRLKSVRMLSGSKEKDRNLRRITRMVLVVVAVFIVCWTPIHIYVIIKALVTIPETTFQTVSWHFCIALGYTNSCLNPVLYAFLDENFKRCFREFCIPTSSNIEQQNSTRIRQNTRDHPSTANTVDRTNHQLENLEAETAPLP
The target in test [20] is Kappa Opioid (Homo sapiens, UniProt P41145). Put plainly: Radioligand binding selectivity. The note with it: Kappa Opioid; read-out: Ki. The procedure:
as §1

pKi: −log10 of the molar value.

Chain of human ERG (hERG) K+ channel (Q12809 whole entry): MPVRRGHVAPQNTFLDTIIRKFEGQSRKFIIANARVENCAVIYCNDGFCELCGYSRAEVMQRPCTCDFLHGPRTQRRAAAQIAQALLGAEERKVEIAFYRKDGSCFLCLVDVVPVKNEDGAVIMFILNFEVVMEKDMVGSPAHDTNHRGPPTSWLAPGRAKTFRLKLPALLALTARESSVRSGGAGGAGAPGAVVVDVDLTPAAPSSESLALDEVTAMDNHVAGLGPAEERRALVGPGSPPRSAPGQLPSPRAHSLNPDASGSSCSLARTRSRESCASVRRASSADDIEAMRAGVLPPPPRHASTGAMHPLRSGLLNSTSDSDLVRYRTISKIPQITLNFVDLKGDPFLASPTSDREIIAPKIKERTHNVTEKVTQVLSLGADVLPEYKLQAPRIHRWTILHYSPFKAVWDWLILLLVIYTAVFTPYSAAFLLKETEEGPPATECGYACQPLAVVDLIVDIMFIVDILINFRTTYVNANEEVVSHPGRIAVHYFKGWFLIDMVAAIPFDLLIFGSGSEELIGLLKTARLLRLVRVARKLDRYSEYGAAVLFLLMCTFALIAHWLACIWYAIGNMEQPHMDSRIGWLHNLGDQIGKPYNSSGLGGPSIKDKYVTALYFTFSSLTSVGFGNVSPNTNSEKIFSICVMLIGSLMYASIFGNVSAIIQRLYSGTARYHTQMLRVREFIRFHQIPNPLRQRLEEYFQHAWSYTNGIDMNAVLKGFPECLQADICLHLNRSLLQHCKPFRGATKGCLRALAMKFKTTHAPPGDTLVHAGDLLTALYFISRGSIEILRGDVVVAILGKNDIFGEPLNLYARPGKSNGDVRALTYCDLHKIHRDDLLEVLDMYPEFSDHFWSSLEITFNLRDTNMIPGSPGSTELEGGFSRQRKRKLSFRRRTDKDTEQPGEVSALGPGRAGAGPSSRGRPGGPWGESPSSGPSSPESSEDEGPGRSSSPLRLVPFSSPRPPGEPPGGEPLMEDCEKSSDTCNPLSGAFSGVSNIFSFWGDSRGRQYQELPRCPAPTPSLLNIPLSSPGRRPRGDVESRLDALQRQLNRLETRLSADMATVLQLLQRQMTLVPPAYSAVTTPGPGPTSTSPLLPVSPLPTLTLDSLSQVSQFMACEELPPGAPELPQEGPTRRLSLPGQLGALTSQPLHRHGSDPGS
T2 sequence (P41146 whole entry): as the sequence (P41146 whole entry) above
Chain of 5-HT1D (P28221 whole entry, species assumed): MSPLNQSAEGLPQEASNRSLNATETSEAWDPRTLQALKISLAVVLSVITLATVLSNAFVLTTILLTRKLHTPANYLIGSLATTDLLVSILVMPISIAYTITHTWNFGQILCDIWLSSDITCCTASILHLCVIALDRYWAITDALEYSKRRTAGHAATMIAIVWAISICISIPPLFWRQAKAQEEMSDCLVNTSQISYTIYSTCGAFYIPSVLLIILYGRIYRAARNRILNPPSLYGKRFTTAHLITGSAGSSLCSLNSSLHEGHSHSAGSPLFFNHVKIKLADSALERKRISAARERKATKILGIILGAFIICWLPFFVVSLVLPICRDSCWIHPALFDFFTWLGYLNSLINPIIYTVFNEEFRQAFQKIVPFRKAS
Chain of Kappa Opioid (P41145 whole entry): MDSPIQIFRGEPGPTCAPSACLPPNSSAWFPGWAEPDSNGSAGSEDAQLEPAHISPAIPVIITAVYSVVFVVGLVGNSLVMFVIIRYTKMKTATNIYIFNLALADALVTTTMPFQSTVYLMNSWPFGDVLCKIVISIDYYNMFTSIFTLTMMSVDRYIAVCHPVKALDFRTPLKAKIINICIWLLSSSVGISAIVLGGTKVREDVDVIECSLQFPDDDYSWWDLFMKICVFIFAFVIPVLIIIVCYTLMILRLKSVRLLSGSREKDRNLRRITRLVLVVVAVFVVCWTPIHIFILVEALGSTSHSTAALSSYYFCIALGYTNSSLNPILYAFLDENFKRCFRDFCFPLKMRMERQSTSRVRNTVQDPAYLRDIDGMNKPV
Chain of 5-HT1F (P30939 whole entry, species assumed): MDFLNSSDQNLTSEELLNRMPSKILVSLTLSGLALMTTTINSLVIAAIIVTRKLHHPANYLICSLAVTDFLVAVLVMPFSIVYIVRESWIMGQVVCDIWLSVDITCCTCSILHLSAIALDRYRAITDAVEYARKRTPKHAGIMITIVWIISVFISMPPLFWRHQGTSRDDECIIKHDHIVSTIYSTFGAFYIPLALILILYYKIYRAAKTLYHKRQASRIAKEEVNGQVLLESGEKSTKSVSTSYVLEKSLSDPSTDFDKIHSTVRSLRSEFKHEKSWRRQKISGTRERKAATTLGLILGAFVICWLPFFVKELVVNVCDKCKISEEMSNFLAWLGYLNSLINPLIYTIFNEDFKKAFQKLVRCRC
Chain of 5-HT7 (P34969 whole entry, species assumed): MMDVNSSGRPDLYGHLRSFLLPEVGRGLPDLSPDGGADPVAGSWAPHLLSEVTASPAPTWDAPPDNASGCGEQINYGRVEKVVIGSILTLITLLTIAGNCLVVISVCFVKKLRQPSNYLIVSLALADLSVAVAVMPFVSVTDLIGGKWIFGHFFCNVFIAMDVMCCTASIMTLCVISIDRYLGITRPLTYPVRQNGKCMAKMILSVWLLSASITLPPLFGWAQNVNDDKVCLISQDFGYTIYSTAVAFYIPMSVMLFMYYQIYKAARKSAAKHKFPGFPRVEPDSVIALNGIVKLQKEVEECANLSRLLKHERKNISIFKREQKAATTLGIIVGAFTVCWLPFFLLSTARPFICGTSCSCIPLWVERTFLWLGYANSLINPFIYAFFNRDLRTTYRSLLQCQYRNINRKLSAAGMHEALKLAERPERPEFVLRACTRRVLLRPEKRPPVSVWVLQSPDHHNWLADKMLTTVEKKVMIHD

Broadly, the pKi is the negative decadic logarithm of the Ki, by convention in mol/L. In the case of `OCc1nn(-c2c(F)cccc2F)cc1CN1CCC2(CC1)OCC(F)(F)c1cc(Cl)sc12` [Example 50, [4-[(2-Chloro-4,4-difluoro-spiro[5H-thieno[2,3-c]pyran-7,4′-piperidine]-1′-yl)methyl]-1-(2,6-difluorophenyl)pyrazol-3-yl]methanol], in test [1], the fasting-induced hyperphagia result is “substantially block fasting-induced hyperphagia”. The molecule further returned a receptor occupancy at 3 mg/kg in test [2] of 81%. In addition, the pKi is 5.15 in test [3]; 9.05 in test [5]; less than 5.07 in test [6]; less than 5.27 in [7]; less than 5.45 in test [8]; less than 5.23 in test [9]. For the same molecule, the pKi in test [10] is less than 5.40; in [11] it was less than 5.30; in [12], less than 5.39; in test [13], 7.37; in [14] it was less than 5.07; in [15], 5.32. The pKi in [16] was less than 5.04. The molecule further gave a Kb in test [4] of 0.54 nM.
Take `CC(=O)c1cccc(F)c1-n1cc(CN2CCC3(CC2)OCC(F)(F)c2cc(Cl)sc23)c(C)n1` [Example 40, 1-(2-(4-((2′-Chloro-4′,4′-difluoro-4′,5′-dihydrospiro[piperidine-4,7′-thieno[2,3-c]pyran]-1-yl)methyl)-3-methyl-1H-pyrazol-1-yl)-3-fluorophenyl)ethanone]: in test [1], the fasting-induced hyperphagia result is “substantially block fasting-induced hyperphagia”. The molecule also displayed a receptor occupancy at 3 mg/kg in test [2] of 70%. Besides, the pKi is 5.97 in [3]; 9.60 in [5]; less than 6.32 in test [18]; less than 6.35 in test [19]; less than 6.37 in test [20]. This molecule yielded a Kb in test [4] of 0.3 nM. In test [17], the “maximum effect, reduction in immobilization time” value is reported as 50%. The ED60 in [17] (immobility time) was 23 nM.

The values are drawn from patent publication US20120214784A1, “SPIROPIPERIDINE COMPOUNDS AS ORL-1 RECEPTOR ANTAGONISTS” (ELI LILLY AND COMPANY, priority 2009, published 2012).
